We go through 23 compounds from patent US10766902B2, “Wee-1 inhibiting pyrazolopyrimidinone compounds” (ALMAC DISCOVERY LIMITED, priority 2016, dated 2020).

Molecules are shown by their SMILES.

The IC50 is the concentration that gives 50% inhibition.

Wee-1 kinase, sequence (P30291 whole entry): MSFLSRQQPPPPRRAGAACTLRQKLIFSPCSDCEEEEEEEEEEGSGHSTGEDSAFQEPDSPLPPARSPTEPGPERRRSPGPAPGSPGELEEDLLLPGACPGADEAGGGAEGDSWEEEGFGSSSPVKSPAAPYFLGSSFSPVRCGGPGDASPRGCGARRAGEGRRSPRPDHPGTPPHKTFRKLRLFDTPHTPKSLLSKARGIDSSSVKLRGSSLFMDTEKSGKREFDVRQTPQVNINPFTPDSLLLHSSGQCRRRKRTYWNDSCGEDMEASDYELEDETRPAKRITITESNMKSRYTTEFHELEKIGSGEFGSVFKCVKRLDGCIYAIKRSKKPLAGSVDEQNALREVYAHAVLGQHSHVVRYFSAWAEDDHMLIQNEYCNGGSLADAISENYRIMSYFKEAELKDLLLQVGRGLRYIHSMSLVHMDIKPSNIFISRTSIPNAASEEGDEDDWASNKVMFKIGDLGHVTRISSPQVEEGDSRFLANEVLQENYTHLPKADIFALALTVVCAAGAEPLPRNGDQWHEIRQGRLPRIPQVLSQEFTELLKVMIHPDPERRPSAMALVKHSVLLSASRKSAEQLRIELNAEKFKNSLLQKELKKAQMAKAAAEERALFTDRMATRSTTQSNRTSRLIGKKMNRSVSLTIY

This assay deals with Wee-1 kinase (Homo sapiens (Human), UniProt P30291). As to the kind of experiment: Measurement of Wee-1 kinase activity (ADP-Glo luminescence). In kind it is biochemical. The settings on record: read-out: Wee1 IC50. The protocol:
Method 1: Measurement of Wee-1 Kinase Activity
In the measurement of Wee-1 activity, a commercial peptide Poly(Lys Tyr(4:1)) hydrobromide was purchased from Sigma Aldrich and used as the substrate. Activated Wee-1 kinase was purchased from Invitrogen (PV3817) and an ADP-Glo luminescent kit was purchased from Promega.
All reactions took place in […] volumes in reaction buffer containing 40 mM Tris-HCl and 20 mM magnesium chloride, supplemented with 0.1 mg/mL bovine serum albumin and 2 mM DTT. Compounds were serially diluted in buffer and 5 μL of each concentration pipetted into a white 384 well plate (Sigma Aldrich M6186). A 5 μL aliquot of the Wee-1 enzyme was added to each well and the plate centrifuged for 1 min to ensure mixing of the enzyme and inhibitor.
The plate was incubated at room temperature for 30 minutes before the addition of 2.0 μg/mL of substrate and 30 μM ATP in a 5 μL aliquot. The plate was centrifuged for one minute and incubated for 1 h at RT.
15 μL of ADP-Glo stop reagent was added to each well to quench the reaction and deplete unconverted ATP. The plate was incubated for a further 40 min in the dark at RT.
30 μL of ADP-Glo kinase detection reagent was added to each well, converting ADP to ATP, catalysing the generation of luciferin by luciferase. The plate was shaken for 1 min, and incubated in the dark for an additional hour.
Luminescence from each well was detected using the Biotek Synergy4 HD plate reader and the percentage inhibition of kinase activity calculated for each inhibitor tested. Positive (kinase only) and negative (no kinase) controls were added to each plate to ensure specific interaction of kinase and inhibitor. The IC50 concentration for each inhibitor was calculated by plotting the percentage kinase inhibition against concentration of inhibitor and the curve generated by non-linear regression fitting.
In the case of `CC(C)n1c(=O)c2cnc(Nc3ccc(N4CCN(CC(F)(F)F)CC4)cc3)nc2n1-c1cccc(N=S(C)(C)=O)n1` [Example 50, 1-(6-{[Dimethyl(oxo)-λ^6-sulfanylidene]amino}pyridin-2-yl)-2-(propan-2-yl)-6-({4-[4-(2,2,2-trifluoroethyl)piperazin-1-yl]phenyl}amino)-1H,2H,3H-pyrazolo[3,4-d]pyrimidin-3-one], the IC50 is 0.4 nM.

For `C=CCn1c(=O)c2cnc(Nc3ccc(N4CCOCC4)c(CNC)c3)nc2n1-c1cccc(N=S(C)(C)=O)c1` [Example 22, 1-(3-{[Dimethyl(oxo)-λ^6-sulfanylidene]amino}phenyl)-6-({3-[(methylamino)methyl]-4-(morpholin-4-yl)phenyl}amino)-2-(prop-2-en-1-yl)-1H,2H,3H-pyrazolo[3,4-d]pyrimidin-3-one], the IC50 is 2.6 nM.

As to `CC(C)n1c(=O)c2cnc(Nc3ccc(C(F)(F)F)cc3)nc2n1-c1cccc(N=S(C)(C)=O)n1` [Example 72, 1-(6-{[Dimethyl(oxo)-λ^6-sulfanylidene]amino}pyridin-2-yl)-2-(propan-2-yl)-6-{[4-(trifluoromethyl)phenyl]amino}-1H,2H,3H-pyrazolo[3,4-d]pyrimidin-3-one], the IC50 worked out at 19 nM.

`CC(C)n1c(=O)c2cnc(Nc3ccc(N4CCNCC4)cc3)nc2n1-c1cccc(N=S2(=O)CCCC2)n1` [Example 59, 1-{6-[(1-Oxo-1λ^6-thiolan-1-ylidene)amino]pyridin-2-yl}-6-{[4-(piperazin-1-yl)phenyl]amino}-2-(propan-2-yl)-1H,2H,3H-pyrazolo[3,4-d]pyrimidin-3-one]: the IC50 is 1.2 nM.

Turning to `CCCn1c(=O)c2cnc(Nc3ccc(N4CCOCC4)nc3)nc2n1-c1cccc(N=S(C)(C)=O)n1` [Example 39, 1-(6-{[Dimethyl(oxo)-λ^6-sulfanylidene]amino}pyridin-2-yl)-6-{[6-(morpholin-4-yl)pyridin-3-yl]amino}-2-propyl-1H,2H,3H-pyrazolo[3,4-d]pyrimidin-3-one], the IC50 is 1.7 nM.

For the compound `C=CCn1c(=O)c2cnc(Nc3ccc(N4CCN(CC)CC4)cc3)nc2n1-c1cccc(N=S(C)(C)=O)n1` [Example 10, 1-(6-{[Dimethyl(oxo)-λ^6-sulfanylidene]amino}pyridine-2-yl)-6-{[4-(4-ethylpiperazin-1-yl)phenyl]amino}-2-(prop-2-en-1-yl)-1H,2H,3H-pyrazolo[3,4-d]pyrimidin-3-one], the IC50 was 0.9 nM.

Take `C=CCn1c(=O)c2cnc(Nc3ccc(N4CCN(C)CC4)cc3)nc2n1-c1cccc(N=S2(=O)CCCC2)n1` [Example 23, 2-Allyl-6-((4-(4-methylpiperazin-1-yl)phenyl)amino)-1-(6-((1-oxidotetrahydrothiophen-1-ylidene)amino)pyridin-2-yl)-1H-pyrazolo[3,4-d]pyrimidin-3(2H)-one]: the IC50 worked out at 0.9 nM.

As for `C=CCn1c(=O)c2cnc(Nc3ccc(F)nc3)nc2n1-c1cccc(N=S(C)(C)=O)n1` [Example 70, 1-(6-{[Dimethyl(oxo)-λ^6-sulfanylidene]amino}pyridin-2-yl)-6-[(6-fluoropyridin-3-yl)amino]-2-(prop-2-en-1-yl)-1H,2H,3H-pyrazolo[3,4-d]pyrimidin-3-one], the concentration for half-maximal inhibition (IC50) turned out to be 2.5 nM.

Turning to `C=CCn1c(=O)c2cnc(Nc3ccc(N4CCOCC4)cc3)nc2n1-c1cncc(N=S(C)(C)=O)c1` [Example 44, 1-(5-{[Dimethyl(oxo)-λ^6-sulfanylidene]amino}pyridin-3-yl)-6-{[4-(morpholin-4-yl)phenyl]amino}-2-(prop-2-en-1-yl)-1H,2H,3H-pyrazolo[3,4-d]pyrimidin-3-one], the IC50 came out at 20.3 nM.

Take `CC(C)n1c(=O)c2cnc(Nc3ccc(F)cc3)nc2n1-c1cccc(N=S2(=O)CCCC2)n1` [Example 55, 6-[(4-Fluorophenyl)amino]-1-{6-[(1-oxo-1λ^6-thiolan-1-ylidene)amino]pyridin-2-yl}-2-(propan-2-yl)-1H,2H,3H-pyrazolo[3,4-d]pyrimidin-3-one]: the IC50 worked out at 13.3 nM.

As to `C=CCn1c(=O)c2cnc(Nc3ccc(F)c(OC)c3)nc2n1-c1cccc(N=S(C)(C)=O)n1` [Example 82, 1-(6-{[Dimethyl(oxo)-λ^6-sulfanylidene]amino}pyridin-2-yl)-6-[(4-fluoro-3-methoxyphenyl)amino]-2-(prop-2-en-1-yl)-1H,2H,3H-pyrazolo[3,4-d]pyrimidin-3-one], the half-maximal inhibitory concentration (IC50) worked out at 0.4 nM.

Consider `C=CCn1c(=O)c2cnc(Nc3ccc(N4CCNC(C(F)(F)F)C4)cc3)nc2n1-c1cncc(N=S(C)(C)=O)n1` (racemic) [Example 93, rac-1-(6-{[Dimethyl(oxo)-λ^6-sulfanylidene]amino}pyrazin-2-yl)-2-(prop-2-en-1-yl)-6-({4-[3-(trifluoromethyl)piperazin-1-yl]phenyl}amino)-1H,2H,3H-pyrazolo[3,4-d]pyrimidin-3-one], for which the IC50 stood at 0.4 nM.

As for `C=CCn1c(=O)c2cnc(Nc3ccc(N4CCC4)cc3)nc2n1-c1cccc(N=S(C)(C)=O)n1` [Example 90, 6-{[4-(Azetidin-1-yl)phenyl]amino}-1-(6-{[dimethyl(oxo)-λ^6-sulfanylidene]amino}pyridin-2-yl)-2-(prop-2-en-1-yl)-1H,2H,3H-pyrazolo[3,4-d]pyrimidin-3-one], the IC50 was 0.2 nM.

As for `C=CCn1c(=O)c2cnc(Nc3ccccc3)nc2n1-c1cccc(N=S(C)(C)=O)n1` [Example 19, 1-(6-{[Dimethyl(oxo)-λ^6-sulfanylidene]amino}pyridin-2-yl)-6-(phenylamino)-2-(prop-2-en-1-yl)-1H,2H,3H-pyrazolo[3,4-d]pyrimidin-3-one], the IC50 was 1 nM.

Take `C=CCn1c(=O)c2cnc(Nc3ccc(C4CCNCC4)cc3)nc2n1-c1cccc(N=S(C)(C)=O)n1` [Example 13, 1-(6-{[Dimethyl(oxo)-λ^6-sulfanylidene]amino}pyridine-2-yl)-6-{[4-(piperidin-4-yl)phenyl]amino}-2-(prop-2-en-1-yl)-1H,2H,3H-pyrazolo[3,4-d]pyrimidin-3-one]: the IC50 amounted to 1.2 nM.

For `CC(C)n1c(=O)c2cnc(Nc3ccc(F)cc3)nc2n1-c1cccc(N=S(C)(C)=O)n1` [Example 41, 1-(6-{[Dimethyl(oxo)-λ^6-sulfanylidene]amino}pyridin-2-yl)-6-[(4-fluorophenyl)amino]-2-(propan-2-yl)-1H,2H,3H-pyrazolo[3,4-d]pyrimidin-3-one], the half-inhibitory concentration (IC50) came out at 4.9 nM.

In the case of `C=CCn1c(=O)c2cnc(Nc3ccc(N4CCOCC4)c(OC)c3)nc2n1-c1cccc(N=S(C)(C)=O)n1` [Example 25, 1-(6-{[Dimethyl(oxo)-λ^6-sulfanylidene]amino}pyridin-2-yl)-6-{[3-methoxy-4-(morpholin-4-yl)phenyl]amino}-2-(prop-2-en-1-yl)-1H,2H,3H-pyrazolo[3,4-d]pyrimidin-3-one], the IC50 is 0.7 nM.

Consider `C=CCn1c(=O)c2cnc(Nc3ccc(C(C)(C)C)cc3)nc2n1-c1cccc(N=S(C)(C)=O)n1` [Example 64, 6-[(4-tert-Butylphenyl)amino]-1-(6-{[dimethyl(oxo)-λ^6-sulfanylidene]amino}pyridin-2-yl)-2-(prop-2-en-1-yl)-1H,2H,3H-pyrazolo[3,4-d]pyrimidin-3-one], for which the half-maximal inhibitory concentration (IC50) was 1.6 nM.

`C=CCn1c(=O)c2cnc(Nc3ccc(Cl)cc3)nc2n1-c1cccc(N=S(C)(C)=O)n1` [Example 62, 6-[(4-Chlorophenyl)amino]-1-(6-{[dimethyl(oxo)-λ^6-sulfanylidene]amino}pyridin-2-yl)-2-(prop-2-en-1-yl)-1H,2H,3H-pyrazolo[3,4-d]pyrimidin-3-one]: the IC50 amounted to 0.3 nM.

As to `C=CCn1c(=O)c2cnc(Nc3ccc(N(C)C)c(C(O)C(F)(F)F)c3)nc2n1-c1cccc(N=S(C)(C)=O)n1` (racemic) [Example 83, rac-1-(6-{[Dimethyl(oxo)-λ^6-sulfanylidene]amino}pyridin-2-yl)-6-{[4-(dimethylamino)-3-(2,2,2-trifluoro-1-hydroxyethyl)phenyl]amino}-2-(prop-2-en-1-yl)-1H,2H,3H-pyrazolo[3,4-d]pyrimidin-3-one], the IC50 is 0.4 nM.

In the case of `C=CCn1c(=O)c2cnc(Nc3ccc(N4CCNCC4)c(CO)c3)nc2n1-c1cccc(N=S(C)(C)=O)c1` [Example 29, 1-(3-{[Dimethyl(oxo)-λ^6-sulfanylidene]amino}phenyl)-6-{[3-(hydroxymethyl)-4-(piperazin-1-yl)phenyl]amino}-2-(prop-2-en-1-yl)-1H,2H,3H-pyrazolo[3,4-d]pyrimidin-3-one], the IC50 stood at 0.9 nM.

For the compound `C=CCn1c(=O)c2cnc(Nc3cnn(C)c3)nc2n1-c1cccc(N=S(C)(C)=O)n1` [Example 37, 1-(6-{[Dimethyl(oxo)-λ^6-sulfanylidene]amino}pyridin-2-yl)-6-[(1-methyl-1H-pyrazol-4-yl)amino]-2-(prop-2-en-1-yl)-1H,2H,3H-pyrazolo[3,4-d]pyrimidin-3-one], the half-inhibitory concentration (IC50) is 1.3 nM.

Turning to `C=CCn1c(=O)c2cnc(Nc3ccc(N4CCOCC4)cc3)nc2n1-c1cccc(N=S(C)(C)=O)c1` [Example 31, 1-(3-{[Dimethyl(oxo)-λ^6-sulfanylidene]amino}phenyl)-6-{[4-(morpholin-4-yl)phenyl]amino}-2-(prop-2-en-1-yl)-1H,2H,3H-pyrazolo[3,4-d]pyrimidin-3-one], the IC50 worked out at 1.4 nM.
